This experiment deals with T1, human D4 receptors (Homo sapiens, UniProt P21917).
T1 construct: expressed in transfected cells; host or cells: CHO cells
T1 sequence (P21917 1-419): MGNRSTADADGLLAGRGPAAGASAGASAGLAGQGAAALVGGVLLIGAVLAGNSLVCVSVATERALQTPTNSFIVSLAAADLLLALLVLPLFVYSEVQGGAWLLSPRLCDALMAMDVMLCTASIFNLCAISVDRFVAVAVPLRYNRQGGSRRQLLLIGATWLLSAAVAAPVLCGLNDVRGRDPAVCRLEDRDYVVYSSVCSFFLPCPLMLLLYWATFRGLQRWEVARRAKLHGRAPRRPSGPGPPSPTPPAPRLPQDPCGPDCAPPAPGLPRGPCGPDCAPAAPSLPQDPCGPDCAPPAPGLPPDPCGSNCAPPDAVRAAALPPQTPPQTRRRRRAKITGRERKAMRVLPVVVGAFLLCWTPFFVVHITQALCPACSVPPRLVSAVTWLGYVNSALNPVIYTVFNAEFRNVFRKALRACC
In words: D4 receptor binding assay (3H-YM 09151-2 displacement). The note with it: CHO cell membranes with cloned human D4 receptor; 0.5 nM 3H-YM 09151-2.

Molecules are shown by their SMILES.

Procedure: The cloned membranes are homogenized in 100 volumes (wt/vol) of 0.05 M Tris-HCl buffer at 4° C. and pH 7.4 containing 120 mM NaCl, 1 mM EDTA and 5 mM MgCl2. The samples were centrifuged at 48,000×g then re-suspended and re-homogenized. The final tissue sample is kept frozen until use. The tissue is resuspended 1:20 (wt/vol) in 0.05 M Tris-HCl buffer containing 120 mM NaCl prior to use.
Non-specific binding is defined as that binding found in the presence of 1 mM spiperone; without further additions, nonspecific binding is less than 20% of total binding.

The term Ki denotes a dissociation constant, usually derived from enzyme kinetics or from competition with a known ligand. A lower Ki goes with tighter binding. `CCCCN(C(=O)CN1CCN(Cc2ccc(Cl)cc2)CC1)c1ccccc1` [Compound 2, N-butyl-2-(4-(4-chlorobenzyl)piperazinyl)-N-phenylethanamide] gave an inhibitory constant (Ki) of 154 nM.

The values above are taken from US6444819B1, “Benzylpiperazinyl and piperidinyl ethanone derivatives: dopamine receptor subtype specific ligands” (Neurogen Corporation, priority 1998, dated 2002).
